The values that follow come from patent publication US12667572B2, “Tricyclic compounds useful in the treatment of cancer, autoimmune and inflammatory disorders” (SCHRÖDINGER, INC., priority 2021, dated 2026).

Each structure is given as a SMILES string.

The first assay addresses T1, full-length MALT1 protein His-MALT1(1-824) (Homo sapiens, UniProt Q9UDY8).
T1 construct: full-length MALT1 protein His-MALT1(1-824); His (N); made in house; host or cells: baculovirus-infected insect cells
T1 sequence (Q9UDY8 1-824): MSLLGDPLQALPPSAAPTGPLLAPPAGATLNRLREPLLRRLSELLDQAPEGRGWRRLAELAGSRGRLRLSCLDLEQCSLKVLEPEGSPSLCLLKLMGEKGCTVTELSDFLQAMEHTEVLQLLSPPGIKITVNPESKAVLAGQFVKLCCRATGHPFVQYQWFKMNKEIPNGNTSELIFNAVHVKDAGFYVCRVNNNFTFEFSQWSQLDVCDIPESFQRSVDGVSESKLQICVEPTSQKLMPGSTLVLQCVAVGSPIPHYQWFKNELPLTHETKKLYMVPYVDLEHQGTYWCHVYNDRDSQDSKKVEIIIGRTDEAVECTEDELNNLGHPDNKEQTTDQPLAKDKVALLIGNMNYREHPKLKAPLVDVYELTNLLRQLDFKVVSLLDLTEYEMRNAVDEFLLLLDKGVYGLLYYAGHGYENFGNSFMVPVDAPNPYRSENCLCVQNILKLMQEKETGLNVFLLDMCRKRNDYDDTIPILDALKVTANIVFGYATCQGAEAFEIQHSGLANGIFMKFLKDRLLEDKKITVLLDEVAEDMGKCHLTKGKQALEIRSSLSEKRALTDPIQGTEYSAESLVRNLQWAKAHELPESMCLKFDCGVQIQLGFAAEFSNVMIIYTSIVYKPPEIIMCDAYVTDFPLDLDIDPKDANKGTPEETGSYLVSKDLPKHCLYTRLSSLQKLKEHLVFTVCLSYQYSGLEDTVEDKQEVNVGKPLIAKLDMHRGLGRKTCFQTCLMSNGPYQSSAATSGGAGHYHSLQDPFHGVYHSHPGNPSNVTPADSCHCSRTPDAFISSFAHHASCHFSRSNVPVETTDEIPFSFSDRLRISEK
Nature of the assay: MALT1 protease assay, Assay 2 (1 nM MALT1, Ac-LRSR-AMC substrate). The class given is biochemical. As to conditions: 1 nM MALT1, 50 μM Ac-LRSR-AMC, 2 h pre-incubation, 8 hr incubation at RT. In outline: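 Full-length His-MALT1(1-824) from baculovirus-infected insect cells, pre-incubated with compound 2 h at RT (0.1% DMSO). Then 50 μM Ac-LRSR-AMC added. Buffer was Tris pH 7.5 with 600 mM sodium citrate, DTT, EDTA and BSA. Fluorescence (ex 355/em 460 nm) was read after 8 h at RT and normalized to high/low controls. IC50 from non-linear regression.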
Broadly, the IC50 is the concentration that inhibits the measured activity by half. The low end stands for greater potency, the high end for weaker potency. On to `CC1(C)CC(C(=O)Nc2ccnc(C(F)(F)F)c2)c2cnn3cc(C(F)F)nc3c21` (single isomer, unassigned) [Example 201, 2-(difluoromethyl)-9,9-dimethyl-N-(2-(trifluoromethyl)pyridin-4-yl)-8,9-dihydro-7H-cyclopenta[d]imidazo[1,2-b]pyridazine-7-carboxamide], for which the half-maximal inhibitory concentration (IC50) lay in the range of 100 to 1000 nM.

`CC1(C)CC(C)(C(=O)Nc2cnc(-n3nccn3)c(Cl)c2)c2cnc3cc(Cl)nn3c21` (single isomer, unassigned) [Example 139, 2-chloro-N-(5-chloro-6-(2H-1,2,3-triazol-2-yl)pyridin-3-yl)-6,8,8-trimethyl-7,8-dihydro-6H-cyclopenta[e]pyrazolo[1,5-a]pyrimidine-6-carboxamide]: the IC50 was not below 1000 nM.

The compound `CC1(C)CC(C(=O)Nc2cnc(N=S(C)(C)=O)c(Cl)c2)c2cnc3cc(F)nn3c21` (single isomer, unassigned) [Example 131, N-(5-chloro-6-((dimethyl(oxo)-λ^6-sulfaneylidene)amino)pyridin-3-yl)-2-fluoro-8,8-dimethyl-7,8-dihydro-6H-cyclopenta[e]pyrazolo[1,5-a]pyrimidine-6-carboxamide] registered a half-maximal inhibitory concentration (IC50) not below 1000 nM.

Compound `O=C(Nc1cnc(-n2nccn2)c(C(F)(F)F)c1)C1CC2(CC2)c2c1cnc1cc(Cl)nn21` (single isomer, unassigned) [Example 148, N-(6-(2H-1,2,3-triazol-2-yl)-5-(trifluoromethyl)pyridin-3-yl)-2-chloro-6,7-dihydrospiro[cyclopenta[e]pyrazolo[1,5-a]pyrimidine-8,1′-cyclopropane]-6-carboxamide] gave an IC50 not below 1000 nM.

Regarding `N#Cc1cc(NC(=O)C2CC3(CC3)c3c2cnc2cc(F)nn32)cnc1OC(F)F` (stereo not drawn) [Example 82, N-(5-cyano-6-(difluoromethoxy)pyridin-3-yl)-2-fluoro-6,7-dihydrospiro[cyclopenta[e]pyrazolo[1,5-a]pyrimidine-8,1′-cyclopropane]-6-carboxamide], the IC50 is 10 to 100 nM.

As to `O=C(Nc1cnc(-n2nccn2)c(C(F)(F)F)c1)[C@H]1C[C@]2(CCO2)c2c1cnc1cc(Cl)nn21` (racemic) [Example 117, (cis)-N-(6-(2H-1,2,3-triazol-2-yl)-5˜(trifluoromethyl)pyridin-3-yl)-2-chloro-6,7-dihydrospiro[cyclopenta[e]pyrazolo[1,5-a]pyrimidine-8,2′-oxetane]-6-carboxamide], the IC50 was 10 to 100 nM.

In turn, `O=C(Nc1cnc([C@H](O)C(F)F)c(Cl)c1)[C@H]1CC2(CCC2)c2c1cnc1cc(F)nn21` (single isomer, unassigned) [Example 136, N-(5-chloro-6-(2,2-difluoro-1-hydroxyethyl)pyridin-3-yl)-2′-fluoro-6′,7′-dihydrospiro[cyclobutane-1,8′-cyclopenta[e]pyrazolo[1,5-a]pyrimidine]-6′-carboxamide] showed an IC50 of 100 to 1000 nM.

The compound `CC1(C)C[C@@H](C(=O)Nc2cnc(OC(F)F)c(C#N)c2)c2cnc3cc(F)nn3c21` (single isomer, unassigned) [Example 83, N-(5-cyano-6-(difluoromethoxy)pyridin-3-yl)-2-fluoro-8,8-dimethyl-7,8-dihydro-6H-cyclopenta[e]pyrazolo[1,5-a]pyrimidine-6-carboxamide] displayed an IC50 of 100 to 1000 nM.

Compound `CC1(C)C[C@@H](C(=O)Nc2cnc(-n3nccn3)c(C#N)c2)c2cnc3cc(Cl)nn3c21` (single isomer, unassigned) [Example 106, 2-chloro-N-(5-cyano-6-(2H-1,2,3-triazol-2-yl)pyridin-3-yl)-8,8-dimethyl-7,8-dihydro-6H-cyclopenta[e]pyrazolo[1,5-a]pyrimidine-6-carboxamide] returned an IC50 of 10 to 100 nM.

`O=C(Nc1cnc(-n2nccn2)c(C(F)(F)F)c1)[C@H]1C[C@@]2(CCO2)c2c1cnc1cc(Cl)nn21` (racemic) [Example 116, (trans)-N-(6-(2H-1,2,3-triazol-2-yl)-5˜(trifluoromethyl)pyridin-3-yl)-2-chloro-6,7-dihydrospiro[cyclopenta[e]pyrazolo[1,5-a]pyrimidine-8,2′-oxetane]-6-carboxamide] registered an IC50 of 100 to 1000 nM.

A further assay has as its target T1, full-length MALT1 protein His-MALT1(1-824). Briefly: MALT1 protease assay, Assay 1 (2 nM MALT1, Ac-LRSR-AMC substrate). The class given is biochemical. The note with it: 2 nM MALT1, 50 μM Ac-LRSR-AMC, 2 h pre-incubation, 8 hr incubation at RT. As to the method:
MALT1 protease activity was assessed in an in vitro assay using a tetrapeptide as substrate and full-length MALT1 protein His-MALT1(1-824) purified from baculovirus-infected insect cells. The tetrapeptide substrate is Ac-LRSR-AMC (SM Biochemicals) with Km measured at around 100 μM.
The final assay buffer includes 1 nM (Assay 2) or 2 nM (Assay 1) of MALT1 full-length protein, 50 μM Ac-LRSR-AMC substrate, 50 mM Tris pH 7.5, 600 mM Sodium Citrate, 1 mM DTT, 1 mM EDTA, and 0.05% BSA in 384-well plate format using black microtiter square well plates (Optiplate 384-F, Perkin Elmer).
Test compounds were dissolved in 100% DMSO at stock of 10 mM, with final DMSO concentration 0.1%. Test compounds were pre-incubated with MALT1 protein for 2 h at room temperature. Substrate was added after the pre-incubation and fluorescence signal was measured using Envision at excitation 355 nm and emission 460 nm after 8 hr incubation at RT. Increase in the assay signal was linear over this period and proportional with increase in the enzyme content.
The fluorescence units were transformed to percentage of remaining activity by using the high control (HC, median of fluorescence signal from wells containing MALT1 protein, substrate, and DMSO) and low control (LC, median of fluorescence signal from wells with substrate only) with the formula below: […]
IC50 and Hill coefficients were obtained using Graph Pad Prism (Graph Pad software, Inc, USA) with non-linear regression analysis.
Compound `Cc1cc2ncc3c(n2n1)C1(CC1)CC3C(=O)Nc1cnc(-n2nccn2)c(Cl)c1` (stereo not drawn) [Example 18, N-(5-chloro-6-(2H-1,2,3-triazol-2-yl)pyridin-3-yl)-2-methyl-6,7-dihydrospiro[cyclopenta[e]pyrazolo[1,5-a]pyrimidine-8,1′-cyclopropane]-6-carboxamide] returned an IC50 of 100 to 1000 nM.

`Cn1nc(-c2ncc(NC(=O)C3CC(C)(C)c4c3cnc3cc(Cl)nn43)cc2Cl)cc1O` (stereo not drawn) [Example 42, 2-chloro-N-(5-chloro-6-(5-hydroxy-1-methyl-1H-pyrazol-3-yl)pyridin-3-yl)-8,8-dimethyl-7,8-dihydro-6H-cyclopenta[e]pyrazolo[1,5-a]pyrimidine-6-carboxamide] came in with a half-inhibitory concentration (IC50) not below 1000 nM.

In turn, `CC1(C)C[C@@H](C(=O)Nc2cnc(-n3nccn3)c(Cl)c2)c2cnc3cc(C(F)F)nn3c21` (single isomer, unassigned) [Example 24, N-(5-chloro-6-(2H-1,2,3-triazol-2-yl)pyridin-3-yl)-2-(difluoromethyl)-8,8-dimethyl-7,8-dihydro-6H-cyclopenta[e]pyrazolo[1,5-a]pyrimidine-6-carboxamide] had an IC50 not below 1000 nM.

`CC1(C)CC[C@@H](C(=O)Nc2cnc(-n3nccn3)c(Cl)c2)c2cnc3cc(Cl)nn3c21` (single isomer, unassigned) [Example 8, 2-chloro-N-(5-chloro-6-(2H-1,2,3-triazol-2-yl)pyridin-3-yl)-9,9-dimethyl-6,7,8,9-tetrahydropyrazolo[1,5-a]quinazoline-6-carboxamide] yielded an IC50 not below 1000 nM.

`CC1(C)CC(C(=O)Nc2cnc(-n3nccn3)c(Cl)c2)c2ccc3cc(O)nn3c21` (stereo not drawn) [Example 41, N-(5-chloro-6-(2H-1,2,3-triazol-2-yl)pyridin-3-yl)-2-hydroxy-8,8-dimethyl-7,8-dihydro-6H-cyclopenta[e]pyrazolo[1,5-a]pyridine-6-carboxamide] gave a concentration for half-maximal inhibition (IC50) of 100 to 1000 nM.

On to `CC1(C)CCC(C(=O)Nc2cnc(-n3nccn3)c(Cl)c2)c2cnc3cc(Cl)nn3c21` (stereo not drawn) [Example 7, 2-chloro-N-(5-chloro-6-(2H-1,2,3-triazol-2-yl)pyridin-3-yl)-9,9-dimethyl-6,7,8,9-tetrahydropyrazolo[1,5-a]quinazoline-6-carboxamide], for which the IC50 lay in the range of 10 to 100 nM.

`CC1(C)C[C@H](C(=O)Nc2cnc([C@@H]3CCCO3)c(Cl)c2)c2cnc3cc(Cl)nn3c21` (single isomer, unassigned) [Example 28, 2-chloro-N-(5-chloro-6-(tetrahydrofuran-2-yl)pyridin-3-yl)-8,8-dimethyl-7,8-dihydro-6H-cyclopenta[e]pyrazolo[1,5-a]pyrimidine-6-carboxamide] gave an IC50 of 100 to 1000 nM.

Turning to `CC1(C)C[C@@H](C(=O)Nc2cnc(-n3ncc(CO)n3)c(Cl)c2)c2cnc3cc(Cl)nn3c21` (single isomer, unassigned) [Example 30, 2-chloro-N-(5-chloro-6-(4-(hydroxymethyl)-2H-1,2,3-triazol-2-yl)pyridin-3-yl)-8,8-dimethyl-7,8-dihydro-6H-cyclopenta[e]pyrazolo[1,5-a]pyrimidine-6-carboxamide], the half-inhibitory concentration (IC50) was not below 1000 nM.
